Test results reported in patent US12616761B2, “CXCR4-targeting compounds” (PROVINCIAL HEALTH SERVICES AUTHORITY, priority 2020, dated 2026).
Read-outs that look alike come from different tables or passages of the source. Positions of bridges follow the written chain, without caps; N, C: chain ends. Non-standard residues stand in square brackets, D forms with d. Residues, ends and D or L forms follow the SMILES beside them. 2Nal = N[C@@H](Cc1ccc2ccccc2c1)C(=O)O; Lys(iPr) = CC(C)NCCCC[C@H](N)C(=O)O; hTyr = N[C@@H](CCc1ccc(O)cc1)C(=O)O

Assays:
CXCR4 [1] = molecular target: T1, CXCR4 (Homo sapiens, UniProt P61073); test: Competitive binding assay: [125I]SDF-1α displacement on CHO:CXCR4 cells; conditions: [125I]SDF-1α competition on CHO:CXCR4 cells; given as ranges; read-out: IC50 (nM), Binding Affinity to CXCR4
T1 construct: expressed in transfected cells; host or cells: CHO:CXCR4 cells (gift from Drs. David McDermott and Xiaoyuan Chen, NIH)
Experimental: The Z138 mantle cell lymphoma cell line was given by Dr. Christian Steidl (BC Cancer) as a gift. The CHO:CXCR4 cell line was given by Drs. David McDermott and Xiaoyuan Chen (National Institutes of Health) as a gift. The cell line was cultured in a 5% CO2 atmosphere at 37° C. in a humidified incubator. The Z138 cells were incubated with IMDM medium (Life Technologies Corporations) and the CHO:CXCR4 cells were incubated with F12K medium (Life Technologies Corporations), both of which were supplemented with 10% fetal bovine serum (Sigma-Aldrich), 100 I.U./mL penicillin, and 100 μg/mL streptomycin (Penicillin-Streptomycin Solution).
CHO:CXCR4 cells were seeded at a density of 1×10^5 cells/well in 24-well poly-D-lysine coated plates (Corning BioCoat) and incubated with [^1251]SDF-1α (0.01 nM, PerkinElmer) and competing nonradioactive ligands ([…]). The cells, radioligand, and competing peptides were incubated for 1 h at 27° C. with moderate shaking. Following the incubation period, the supernatant was aspirated, followed by three washes with 1 mL of ice-cold PBS. Cells were harvested with 200 μL of trypsin and counted on a y counter. Data were plotted in GraphPad Prism 7 to determine IC50 values (GraphPad Software, Inc., La Jolla, CA). The values are reported as mean±standard deviation.

CXCR4 [2] = molecular target: T1, CXCR4; conditions: read-out: IC50, block of SDF-1α binding to CXCR4; cited from earlier work
[3] = system: non-Hodgkin lymphoma, renal cell carcinoma, lung cancer, colorectal cancer, and breast cancer xenograft models; conditions: colorectal and breast cancer xenografts; cited from earlier work
small cell lung cancer = small cell lung cancer patients; cited from earlier work

T1 sequence (P61073 whole entry): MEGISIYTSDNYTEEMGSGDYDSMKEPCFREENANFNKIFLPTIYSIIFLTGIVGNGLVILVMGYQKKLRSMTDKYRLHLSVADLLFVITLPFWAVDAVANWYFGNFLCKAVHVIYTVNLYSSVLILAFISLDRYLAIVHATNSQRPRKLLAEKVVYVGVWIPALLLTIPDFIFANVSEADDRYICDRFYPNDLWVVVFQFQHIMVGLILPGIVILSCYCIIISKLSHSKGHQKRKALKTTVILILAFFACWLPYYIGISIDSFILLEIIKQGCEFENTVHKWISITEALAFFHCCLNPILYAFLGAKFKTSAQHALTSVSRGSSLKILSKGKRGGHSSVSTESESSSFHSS

Molecule | IC50 (CXCR4 [1]) [nM] | also measured
CC(=O)NCCCC[C@@H]1NC(=O)CC[C@H](C(=O)N[C@@H](CCCCNC(C)C)C(N)=O)NC(=O)CNC(=O)[C@H](Cc2ccc3ccccc3c2)NC(=O)[C@@H](CCCNC(=N)N)NC(=O)[C@H](CCCCNC(C)C)NC(=O)[C@H](Cc2ccc(O)cc2)NC1=O [cyclo[Lys(Ac)-Tyr-Lys(iPr)-D-Arg-2Nal-Gly-D-Glu]-Lys(iPr)] (K(Ac)Y[Lys(iPr)][dR][2Nal]G[dE][Lys(iPr)]-NH2; lactam N-7) | 1 to 10 | 
CC(=O)NCCCC[C@@H]1NC(=O)CC[C@H](C(=O)N[C@@H](CCCCNC(C)C)C(N)=O)NC(=O)[C@@H](C)NC(=O)[C@H](Cc2ccc3ccccc3c2)NC(=O)[C@@H](CCCNC(=N)N)NC(=O)[C@H](CCCCNC(C)C)NC(=O)[C@H](CCC(N)=O)NC1=O [cyclo[Lys(Ac)-Gln-Lys(iPr)-D-Arg-2Nal-D-Ala-D-Glu]-Lys(iPr)] (K(Ac)Q[Lys(iPr)][dR][2Nal][dA][dE][Lys(iPr)]-NH2; lactam N-7) | 10 to 50 | 
cyclo[Phe-Tyr-Lys(iPr)-D-Arg-2-Nal-Gly-D-Glu]-Lys(iPr)-NH2 [LY2510924] |  | IC50 (CXCR4 [2]): 0.079 nM; growth of xenograft models [3]: able to inhibit growth; treatment efficacy of carboplatin/etoposide chemotherapy (small cell lung cancer): failed to improve treatment efficacy
CC(=O)NCCCC[C@@H]1NC(=O)CC[C@H](C(=O)N[C@@H](CCCCNC(C)C)C(N)=O)NC(=O)[C@@H](C)NC(=O)[C@H](Cc2ccc3ccccc3c2)NC(=O)[C@@H](CCCNC(=N)N)NC(=O)[C@H](CCCCNC(C)C)NC(=O)[C@H](CCC(=O)O)NC1=O [cyclo[Lys(Ac)-Glu-Lys(iPr)-D-Arg-2Nal-D-Ala-D-Glu]-Lys(iPr)] (K(Ac)E[Lys(iPr)][dR][2Nal][dA][dE][Lys(iPr)]-NH2; lactam N-7) | 50 to 100 | 

Further lines, with some results ahead:

IC50 (CXCR4 [1]) [nM] | Molecule | also measured
50 to 100 | CC(C)NCCCC[C@H](NC(=O)[C@H]1CCC(=O)N[C@@H](Cc2ccccc2)C(=O)N[C@@H](CCc2ccc(O)cc2)C(=O)N[C@@H](CCCCNC(C)C)C(=O)N[C@H](CCCNC(=N)N)C(=O)N[C@@H](Cc2ccc3ccccc3c2)C(=O)N[C@H](C)C(=O)N1)C(N)=O [cyclo[Phe-hTyr-Lys(iPr)-D-Arg-2-Nal-D-Ala-D-Glu]-Lys(iPr)] (F[hTyr][Lys(iPr)][dR][2Nal][dA][dE][Lys(iPr)]-NH2; lactam N-7) | 
50 to 100 | CC(C)C[C@H]1NC(=O)[C@H](Cc2ccc3ccccc3c2)NC(=O)[C@@H](CCCNC(=N)N)NC(=O)[C@H](CCCCNC(C)C)NC(=O)[C@H](Cc2ccc(O)cc2)NC(=O)[C@H](Cc2ccccc2)NC(=O)CC[C@H](C(=O)N[C@@H](CCCCNC(C)C)C(N)=O)NC1=O [cyclo[Phe-Tyr-Lys(iPr)-D-Arg-2Nal-D-Leu-D-Glu]-Lys(iPr)] (FY[Lys(iPr)][dR][2Nal][dL][dE][Lys(iPr)]-NH2; lactam N-7) | 
50 to 100 | CC(C)NCCCC[C@H](NC(=O)[C@H]1CCC(=O)N[C@@H](Cc2ccccc2)C(=O)N[C@H](Cc2ccc(O)cc2)C(=O)N[C@@H](CCCCNC(C)C)C(=O)N[C@H](CCCNC(=N)N)C(=O)N[C@@H](Cc2ccc3ccccc3c2)C(=O)N[C@H](C)C(=O)N1)C(N)=O [cyclo[Phe-D-Tyr-Lys(iPr)-DArg-2Nal-D-Ala-D-Glu]-Lys(iPr)] (F[dY][Lys(iPr)][dR][2Nal][dA][dE][Lys(iPr)]-NH2; lactam N-7) | 
